Source: patent US20260274830A1, “DEUTERIUM-SUBSTITUTED PYRIDAZINE BENZOTHIOPHENE COMPOUND AND USE THEREOF” (MEDSHINE DISCOVERY INC., priority 2022, published 2026)

How the values were obtained:
[1] = molecular target: T1, NLRP3 (Rattus norvegicus, UniProt D4A523); experiment: LPS-stimulated IL-1β release assay in rat primary microglia; assay type: cell-based; conditions: LPS 50 ng/ml 3 h, compound 0.5 h, Nigericin 0.3 μg/mL 1 h, IL-1β ELISA
T1 construct: Newborn SD rats were used to obtain mixed glial cells from the cerebral cortex; endogenous in cells; host or cells: primary microglia from the cerebral cortex of newborn SD rats, LPS-primed, nigericin-stimulated
T1 sequence (D4A523 whole entry): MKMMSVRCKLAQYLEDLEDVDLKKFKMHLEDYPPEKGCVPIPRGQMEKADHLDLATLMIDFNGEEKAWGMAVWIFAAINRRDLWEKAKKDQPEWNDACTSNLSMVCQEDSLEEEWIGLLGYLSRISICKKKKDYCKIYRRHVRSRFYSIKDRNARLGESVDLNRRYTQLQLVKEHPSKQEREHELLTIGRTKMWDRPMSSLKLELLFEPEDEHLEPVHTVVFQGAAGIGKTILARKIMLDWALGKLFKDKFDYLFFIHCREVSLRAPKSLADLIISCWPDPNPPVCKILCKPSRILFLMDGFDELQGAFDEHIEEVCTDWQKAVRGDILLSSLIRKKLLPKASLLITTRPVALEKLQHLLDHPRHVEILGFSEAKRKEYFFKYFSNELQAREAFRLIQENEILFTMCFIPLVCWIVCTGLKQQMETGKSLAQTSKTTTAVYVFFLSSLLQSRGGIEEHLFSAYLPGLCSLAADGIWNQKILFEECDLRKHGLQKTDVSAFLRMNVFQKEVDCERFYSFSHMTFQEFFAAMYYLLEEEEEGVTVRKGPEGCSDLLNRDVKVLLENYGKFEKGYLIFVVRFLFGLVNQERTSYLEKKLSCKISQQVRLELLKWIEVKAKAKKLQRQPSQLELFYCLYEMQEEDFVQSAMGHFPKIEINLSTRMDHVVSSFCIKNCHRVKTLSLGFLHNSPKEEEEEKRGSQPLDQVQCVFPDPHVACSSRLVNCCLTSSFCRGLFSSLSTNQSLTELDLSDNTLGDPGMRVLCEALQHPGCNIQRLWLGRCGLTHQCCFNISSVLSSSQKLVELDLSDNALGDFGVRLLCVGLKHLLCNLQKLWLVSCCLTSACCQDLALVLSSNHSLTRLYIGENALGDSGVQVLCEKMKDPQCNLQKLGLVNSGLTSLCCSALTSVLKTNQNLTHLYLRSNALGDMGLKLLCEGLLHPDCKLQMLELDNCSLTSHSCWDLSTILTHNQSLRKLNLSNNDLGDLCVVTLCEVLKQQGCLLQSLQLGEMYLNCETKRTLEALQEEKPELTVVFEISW

[2] = Pharmacokinetic evaluation in beagle dogs in vivo; design: species or system beagle dog
Experimental: The pharmacokinetic characteristics of the compound in beagle dogs after oral administration were tested according to the standard protocol. In the experiment, the candidate compound was formulated into clear solutions, and a single intravenous injection and oral administration were given to beagle dogs. The vehicle for intravenous injection and oral administration was a mixed vehicle composed of 5% dimethyl sulfoxide and 95% solutol with a content of 5%. Four male beagle dogs were used in this project. Two beagle dogs were administered via intravenous injections at a dose of 1 mg/kg, and plasma samples were collected at 0.083, 0.25, 0.5, 1, 2, 4, 8, and 24 h post-administration. The other two beagle dogs were administered orally by gavage at a dose of 2 mg/kg, and plasma samples were collected at 0.25, 0.5, 1, 2, 4, 8, and 24 h post-administration. Plasma concentrations were quantitatively analyzed by LC-MS/MS analysis method, and pharmacokinetic parameters such as peak concentration (Cmax), clearance (CL), half-life (T1/2), volume of distribution at steady state (Vdss), area under the drug-time curve (AUC0-last), and bioavailability (F) were calculated.

[3] = Pharmacokinetic evaluation in SD rats in vivo; design: species or system SD rat
Experimental: (§1) The pharmacokinetic characteristics of the compound in rodents after intravenous injection and oral administration were tested according to the standard protocol. In the experiment, the candidate compound was formulated into clear solutions, and a single intravenous injection and oral administration were given to SD rats. The vehicle for intravenous injection and oral administration was a mixed vehicle composed of 5% dimethyl sulfoxide and 95% solutol with a content of 5%. Four male SD rats were used in this project. Two SD rats were administered via intravenous injections, and plasma samples were collected at 0.083, 0.25, 0.5, 1, 2, 4, 8, and 24 h post-administration. The other two SD rats were administered orally by gavage, and plasma samples were collected at 0.25, 0.5, 1, 2, 4, 8, and 24 h post-administration. Plasma concentrations were quantitatively analyzed by LC-MS/MS analysis method, and pharmacokinetic parameters such as peak concentration (Cmax), clearance (CL), half-life (T1/2), volume of distribution at steady state (Vdss), area under the drug-time curve (AUC0-last), and bioavailability (F) were calculated.
as §1, with “injections at a dose of 2 mg/kg,” for “injections,”, “gavage at a dose of 10 mg/kg,” for “gavage,”

[4] = IV and PO, oral bioavailability, oral exposure, half-life, clearance

Compound: [2H]C([2H])([2H])N1CCC[C@@H](Nc2cc(C)c(-c3ccc4sccc4c3O)nn2)C1 [Compound II]
- IC50 [1]: 35.8 nM
- pharmacokinetic properties in beagle dogs in vivo (in words) [2, 4]: good pharmacokinetic properties
- AUC(0-t) ([2]; male, dog, plasma, IV 1 mg/kg, read-out: Area under drug-time curve AUC0-last IV): 1.92 µM·h
- clearance ([2]; male, dog, plasma, IV 1 mg/kg, read-out: Clearance CL): 25.7 mL/min/kg
- half-life ([2]; male, dog, plasma, IV 1 mg/kg, read-out: Half-life T1/2 (IV) (converted)): 3.53 h
- Vd ([2]; male, dog, plasma, IV 1 mg/kg, read-out: Volume of distribution at steady state Vdss): 6.9 L/kg
- bioavailability ([2]; male, dog, plasma, PO 2 mg/kg vs IV 1 mg/kg, read-out: Bioavailability F): 80.9%
- AUC(0-t) ([2]; male, dog, plasma, PO 2 mg/kg, read-out: Area under drug-time curve AUC0-last PO): 3.11 µM·h
- Cmax ([2]; male, dog, plasma, oral gavage 2 mg/kg (route not given), read-out: Peak concentration Cmax): 504 nM
- pharmacokinetic properties in SD rats in vivo (in words) [3, 4]: good pharmacokinetic properties
- AUC(0-t) ([3]; male, rat, plasma, IV 2 mg/kg, read-out: Area under drug-time curve AUC0-last IV): 1.87 µM·h
- clearance ([3]; male, rat, plasma, IV 2 mg/kg, read-out: Clearance CL): 47.4 mL/min/kg
- half-life ([3]; male, rat, plasma, IV 2 mg/kg, read-out: Half-life T1/2 (IV) (converted)): 1.82 h
- Vd ([3]; male, rat, plasma, IV 2 mg/kg, read-out: Volume of distribution at steady state Vdss): 6.99 L/kg
- bioavailability ([3]; male, rat, plasma, PO 10 mg/kg vs IV 2 mg/kg, read-out: Bioavailability F): 27.1%
- AUC(0-t) ([3]; male, rat, plasma, PO 10 mg/kg, read-out: Area under drug-time curve AUC0-last PO): 2.35 µM·h
- Cmax ([3]; male, rat, plasma, oral gavage 10 mg/kg (route not given), read-out: Peak concentration Cmax): 593 nM
